Test results taken from PubChem BioAssay AID1963847 (Molecular Pharmacology Branch, DTP, NCI, 2024).
pIC50: −log10 of the molar value.

Test system: 415267-285-R-J2-PDC complex spheroid viability
Assay: Anticancer human tumor 415267-285-R-J2-PDC patient-derived breast carcinoma cell line growth inhibition [POLQ]
Details: for pIC50: curve of first compound; for viability, T/C: stronger effect = lower value
Description: Multicellular complex tumor spheroid response to Polymerase (POL) inhibitors (novobiocin, ART-558, RP6685) in combination with a variety of drugs and investigational agents in selected tumor cell lines
The POL inhibitors (novobiocin, ART-558, and RP6685) were evaluated both individually and in combination with standard of care and investigational anticancer small molecules within a complex spheroid model of solid tumors. . Complex spheroids include a stromal component modeled by human endothelial cells (HUVEC) and fibroblasts modeled by human mesenchymal stem cells (MSCs). The concentration ranges selected for each drug and investigational agent were based upon clinically achievable concentrations if the clinical Cmax of the agent was known.
Compounds. The drugs and investigational agents: novobiocin (NSC847541), ART-558 (NSC835418), RP-6685 (NSC848927), peposertib (NSC802822), ceralasertib (NSC780249), elimusertib (NSC800525), camonsertib (NSC841442), AZD-1390 (NSC803789), olaparib (NSC753686), talazoparib (NSC767125), rucaparib (NSC756644), sotorasib (NSC818433), MRTX-1133 (NSC836407), SN-38 (NSC673596), topotecan (NSC609699), epotoside (NSC141540), doxorubicin (NSC123127), gemcitabine (NSC613327), 5-fluorouracil (NSC19893), paclitaxel (NSC125973), vemurafenib (NSC761431), MSA-2 (NSC828583), SN-011 (NSC837082), adavosertib (NSC754352), prexasertib (NSC758257), carboplatin (NSC241240) and oxaliplatin (NSC266046), were obtained from the National Cancer Institute (NCI) Developmental Therapeutics Program Chemical Repository (21). The FDA-approved anticancer drug set is available from the Developmental Therapeutics Program at https://dtp.cancer.gov/organization/dscb/obtaining/. […] The stock solutions were prepared in dimethyl sulfoxide (DMSO, Sigma-Aldrich, St. Louis, MO, cat. D2650), except for the platinum compounds which were prepared in saline (Quality Biological, Gaithersburg, MD, cat. 114-055-101), at 800-fold the tested concentration and stored at -70 degrees C prior to their use. All drugs and investigational agents were tested over a range starting from a high concentration at or near the clinical Cmax and decreasing in half-log increments. If the clinical Cmax for an agent had not been determined, the highest concentration tested was 10 microM, except for SN-38, which was tested at a high concentration of 1 microM.
Cell Culture. All cells were maintained in an incubator at 37 degrees C and 5% CO2 with 95% humidity. The PDC lines were cultured according to standard operating procedures established by the NCI PDMR (https://pdmr.cancer.gov). Table 3 of the manuscript, lists the cell lines along with the number of the three cell types plated to form the mct-spheroids and media for tumor cell growth. After thawing, all PDC lines, except 997537-175-T-J1-PDC and 415267-285-R-J2-PDC, were cultured in Matrigel-coated flasks prepared with a working solution of 1X Ham's F-12 nutrient mix, without supplementation (Thermo Fisher Scientific, cat. 11765054), 100 U/mL penicillin-streptomycin (Thermo Fisher Scientific, cat. 15140122), and 2.5% Matrigel (Corning Inc., Corning, NY, cat. 354248) for the first three passages. The two PDC lines 997537-175-T-J1-PDC and 415267-285-R-J2-PDC were cultured on uncoated flasks. The 857933-349-R-J2-PDC line was cultured in 6C/Colon 1B media containing advanced DMEM/F-12 (Thermo Fisher Scientific, cat. 12634028), 10 mM HEPES (Thermo Fisher Scientific, cat. 15630080), 1X GlutaMAX supplement (Thermo Fisher Scientific, cat. 35050061), 0.1 mg/mL primocin (InvivoGen, San Diego, CA, cat. ant-pm-2), 10% defined fetal bovine serum, heat inactivated (HyClone Laboratories Inc., Logan, UT, cat. SH30070.03HI), 50% L-WRN conditioned media (ATCC, cat. CRL-3276), 1.25 mM N-Acetyl-L-cysteine (Sigma-Aldrich, cat. A9165), 10 mM nicotinamide (Sigma-Aldrich, cat. N0636), 1X B-27 supplement (Thermo Fisher Scientific, cat. 17504044), 1X N-2 supplement (Thermo Fisher Scientific, cat. […]

[1] = second compound 0.0316 µM, first compound 0.00316 µM
[2] = second compound 0.0316 µM, first compound 0.01 µM
[3] = second compound 0.0316 µM, first compound 0.0316 µM
[4] = second compound 0.0316 µM, first compound 0.1 µM
[5] = second compound 0.1 µM, first compound 0.00316 µM
[6] = second compound 0.1 µM, first compound 0.01 µM
[7] = second compound 0.1 µM, first compound 0.0316 µM
[8] = second compound 0.1 µM, first compound 0.1 µM
[9] = second compound 0.316 µM, first compound 0.00316 µM
[10] = second compound 0.316 µM, first compound 0.01 µM
[11] = second compound 0.316 µM, first compound 0.0316 µM
[12] = second compound 0.316 µM, first compound 0.1 µM
[13] = second compound 1 µM, first compound 0.00316 µM
[14] = second compound 1 µM, first compound 0.01 µM
[15] = second compound 1 µM, first compound 0.0316 µM
[16] = second compound 1 µM, first compound 0.1 µM
[17] = second compound 3.16 µM, first compound 0.00316 µM
[18] = second compound 3.16 µM, first compound 0.01 µM
[19] = second compound 3.16 µM, first compound 0.0316 µM
[20] = second compound 3.16 µM, first compound 0.1 µM
[21] = second compound 10 µM, first compound 0.00316 µM
[22] = second compound 10 µM, first compound 0.01 µM
[23] = second compound 10 µM, first compound 0.0316 µM
[24] = second compound 10 µM, first compound 0.1 µM
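Note: spheroids exposed to compounds for one week before readout.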
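Throughout, for viability, T/C: luminescence used as stand-in measure of viable cells; 100% = DMSO vehicle control viability.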

## C=CCn1c(=O)c2cnc(Nc3ccc(N4CCN(C)CC4)cc3)nc2n1-c1cccc(C(C)(C)O)n1 + COC1C(OC(N)=O)C(O)C(Oc2ccc3c(O)c(NC(=O)c4ccc(O)c(CC=C(C)C)c4)c(=O)oc3c2C)OC1(C)C
Second compound 0.0316 µM
  pIC50: 6.46
Second compound 0.1 µM
  pIC50: 6.57
Second compound 0.316 µM
  pIC50: 6.58
Second compound 1 µM
  pIC50: 6.57
Second compound 3.16 µM
  pIC50: 6.60
Second compound 10 µM
  pIC50: 6.57
[1]
  viability, T/C: 106%
[2]
  viability, T/C: 96.1%
[3]
  viability, T/C: 105%
[4]
  viability, T/C: 101%
Second compound 0.0316 µM, first compound 0.316 µM
  viability, T/C: 53.7%
Second compound 0.0316 µM, first compound 1 µM
  viability, T/C: 7.91%
[5]
  viability, T/C: 96%
[6]
  viability, T/C: 95.3%
[7]
  viability, T/C: 101%
[8]
  viability, T/C: 99.1%
Second compound 0.1 µM, first compound 0.316 µM
  viability, T/C: 42.1%
Second compound 0.1 µM, first compound 1 µM
  viability, T/C: 7.89%
[9]
  viability, T/C: 114%
[10]
  viability, T/C: 110%
[11]
  viability, T/C: 100%
[12]
  viability, T/C: 116%
Second compound 0.316 µM, first compound 0.316 µM
  viability, T/C: 38.1%
Second compound 0.316 µM, first compound 1 µM
  viability, T/C: 7.25%
[13]
  viability, T/C: 105%
[14]
  viability, T/C: 119%
[15]
  viability, T/C: 95.8%
[16]
  viability, T/C: 89.9%
Second compound 1 µM, first compound 0.316 µM
  viability, T/C: 42.9%
Second compound 1 µM, first compound 1 µM
  viability, T/C: 7.39%
[17]
  viability, T/C: 111%
[18]
  viability, T/C: 101%
[19]
  viability, T/C: 103%
[20]
  viability, T/C: 95.9%
Second compound 3.16 µM, first compound 0.316 µM
  viability, T/C: 38.1%
Second compound 3.16 µM, first compound 1 µM
  viability, T/C: 8.1%
[21]
  viability, T/C: 112%
[22]
  viability, T/C: 93.9%
[23]
  viability, T/C: 106%
[24]
  viability, T/C: 97.9%
Second compound 10 µM, first compound 0.316 µM
  viability, T/C: 41.7%
Second compound 10 µM, first compound 1 µM
  viability, T/C: 9.2%

## CC[C@@]1(O)C(=O)OCc2c1cc1n(c2=O)Cc2cc3c(CN(C)C)c(O)ccc3nc2-1 + COC1C(OC(N)=O)C(O)C(Oc2ccc3c(O)c(NC(=O)c4ccc(O)c(CC=C(C)C)c4)c(=O)oc3c2C)OC1(C)C
Second compound 0.0316 µM
  pIC50: 7.73
Second compound 0.1 µM
  pIC50: 7.65
Second compound 0.316 µM
  pIC50: 7.66
Second compound 1 µM
  pIC50: 7.71
Second compound 3.16 µM
  pIC50: 7.71
Second compound 10 µM
  pIC50: 7.71
Second compound 0.0316 µM, first compound 0.000316 µM
  viability, T/C: 101%
Second compound 0.0316 µM, first compound 0.001 µM
  viability, T/C: 99%
[1]
  viability, T/C: 101%
[2]
  viability, T/C: 82%
[3]
  viability, T/C: 22.1%
[4]
  viability, T/C: 9.06%
Second compound 0.1 µM, first compound 0.000316 µM
  viability, T/C: 94%
Second compound 0.1 µM, first compound 0.001 µM
  viability, T/C: 98.6%
[5]
  viability, T/C: 97.4%
[6]
  viability, T/C: 83.3%
[7]
  viability, T/C: 36.1%
[8]
  viability, T/C: 8.11%
Second compound 0.316 µM, first compound 0.000316 µM
  viability, T/C: 90%
Second compound 0.316 µM, first compound 0.001 µM
  viability, T/C: 101%
[9]
  viability, T/C: 103%
[10]
  viability, T/C: 107%
[11]
  viability, T/C: 26.7%
[12]
  viability, T/C: 10.8%
Second compound 1 µM, first compound 0.000316 µM
  viability, T/C: 93.6%
Second compound 1 µM, first compound 0.001 µM
  viability, T/C: 99.7%
[13]
  viability, T/C: 88.6%
[14]
  viability, T/C: 84.6%
[15]
  viability, T/C: 24.1%
[16]
  viability, T/C: 8.54%
Second compound 3.16 µM, first compound 0.000316 µM
  viability, T/C: 98.4%
Second compound 3.16 µM, first compound 0.001 µM
  viability, T/C: 97.4%
[17]
  viability, T/C: 105%
[18]
  viability, T/C: 94%
[19]
  viability, T/C: 17.8%
[20]
  viability, T/C: 7.35%
Second compound 10 µM, first compound 0.000316 µM
  viability, T/C: 103%
Second compound 10 µM, first compound 0.001 µM
  viability, T/C: 107%
[21]
  viability, T/C: 107%
[22]
  viability, T/C: 85.8%
[23]
  viability, T/C: 24.6%
[24]
  viability, T/C: 7.99%
